Patent US20260108547A1, “LEVERAGING L-FUCOSE-MEDIATED SIGNALING TO INDUCE MONOCYTE-DERIVED DENDRITIC CELL POLARIZATION” (H. LEE MOFFITT CANCER CENTER AND RESEARCH INSTITUTE, INC., priority 2022, published 2026)

Experiments:
SW1 tumors = assay: Flow cytometric profiling of tumors and lymph nodes, SW1 tumors in C3H/HeN mice fed ± L-fucose and treated ± FTY720 (Table 1); assay type: in vivo, mouse; conditions: for average # of CD8 stem central memory cells: tumors
Protocol: Tumors of SW1 or SM1 melanoma cells from […] or C57BL/6 mice, respectively) were digested using 1× tumor digest buffer (0.5 mg/mL Collagenase I, 0.5 mg/mL Collagenase IV, 0.25 mg/mL Hyalyronidase V, 0.1 mg/mL DNAse I in HBSS (Millipore Sigma (St. Louis, MO)). Tumors were homogenized using the Miltenyi MACs dissociator. Red blood cells were lysed using ACK lysis buffer (Life Technologies, (Grand Island, NY)). Tumor homogenate cells were counted using a standard hemocytometer.
Total TILs were gated first to single cells (based on forward scatter height vs width, followed by side scatter height vs. width). Live cells were gated from the Zombie negative population from the population above. TILs were gated based on splenocyte size from a control spleen. Individual immune subpopulations were sub-gated from the total TIL population using the following staining criteria: CD3^+ for CD3^+ T cells; CD3^+/CD4^+/CD8^− for CD4^+T cells; CD3^+/CD4^−/CD8^+ for CD8^+ T cells, CD11c^+/CD11b^+ for DCs; either NK1.1 (for C57/BL6 mice) or DX5 (for C3H/HeJ) for NK cells; CD11b^+/GR1^+ for MDSC-like cells; and F4/80^+ for macrophages. Single-cell suspensions from tumor and spleen tissue were stained with Live/Dead Zombie NIR (Biolegend, (San Diego, CA)) at 1:1,000 in PBS for 20 min. Cell suspensions were spun down and stained with the following with antibodies at 0.5 μg/ml per antibody: APC anti-mouse CD3, Pacific Blue anti-mouse CD4, BV785 anti-mouse CD8, PerCP anti-mouse CD25, FITC anti-mouse F4/80, PeCy7 anti-mouse CD11c, PE anti-mouse NK1.1 or PE anti-mouse DX5, and PerCP-Cy5.5 anti-mouse CD11b. After staining, the cells were washed and fixed (2% formaldehyde), followed by another wash and flow cytometric analysis. The compensation controls were prepared using 0.5 μg/mL of each antibody with UltraComp eBeads, (ThermoFisher Scientific (Waltham, MA)). All samples were subject to flow cytometric profiling using a LSR Flow Cytometer (BD Biosciences (San Jose, CA)) and analysis as indicated using FlowJo software (BD Biosciences (San Jose, CA)).
For all mouse models, 1×10^6 melanoma cells were injected subcutaneously in the right hind flanks of each mouse. […] This dosage is within ranges for dietary supplementation with L-fucose and other similar dietary sugars (e.g., D-mannose) in other rodent studies. When the tumors reached −2 cm^3, the animals were sacrificed, and the tumors either processed for flow cytometric profiling or for histological analysis as indicated.
Control vs. L-fucose±FTY720 models (FIG. 2): SW1 or SM1 mouse melanoma cells were injected into syngeneic C3H/HeN (or NSG) female or C57BL/6 male mice, respectively. Cells were injected as follows: parental SW1 cells for FIG. 1A; parental SM1 cells for FIG. 1E; SW1 cells stably expressing either empty vector (EV) or mouse fucose kinase (mFuk) for FIG. 1L; and parental SW1 cells for FIG. 1M. FTY720 was administered at 20 μg every 2 days starting on Day 12, just prior to the initiation of LF, until endpoint.

[1] = tested on: human PBMC-derived CD4+T cells; assay: Phosphoproteomic and fucosylated proteomic analyses of CD3/CD28-activated CD4+T cells; assay type: cell-based; conditions: 250 μM L-fucose
Protocol: CD4^+T cells cultured and treated as indicated in the main text were harvested and lysed in standard RIPA buffer+protease and phosphatase inhibitors. Protein concentration was estimated by BCA assay (Bio-Rad) and 1 mg lysates were subjected to trypsin digestion. Briefly, lysates were reduced with 4.5 mM dithiothreitol (DTT) for 30 min at 60° C., alkylated with 10 mM iodoacetamide (IAA) at room temperature in the dark for 20 minutes, and digested overnight at 37° C. with 1:20 enzyme-to-protein ratio of trypsin (Worthington). The resulting peptide solution was de-salted using reversed-phase Sep-Pak C18 cartridge (Waters) and lyophilized for 48 hours.
The lyophilized peptides were enriched for global phosphopeptides (pSTY) using IMAC Fe-NTA magnetic beads (Cell Signaling Technology, #20432). Enrichment were carried out on a KingFisher™ Flex Purification System (Thermo Fisher, #24074441). […]
On-bead digestion was performed with trypsin and tryptic peptides were then analyzed using a nanoflow ultra-high-performance liquid chromatograph (RSLC, Dionex, Sunnyvale, CA) coupled to an electrospray orbitrap mass spectrometer (Q-Exactive Plus, Thermo, San Jose, CA) for tandem mass spectrometry peptide sequencing. […] MaxQuant software (version 1.6.2.10) was used to identify and quantify the proteins for the DDA runs. […]

C[C@H](O)[C@@H](O)[C@@H](O)[C@H](O)C=O [L-fucose]
average # of CD8 stem central memory cells (SW1 tumors; Day 28): 0.00 per 10^6 cells | average # of CD8 stem central memory cells (SW1 tumors; Day 42): 0.00 per 10^6 cells | intratumoral CD4+T central and effector memory subpopulations (SW1 tumors; SW1 model ± FTY720): increases | cytotoxic CD4+T cells (SW1 tumors; midpoint (Day 28)): transiently but significantly increased | intratumoral monocyte-derived DCs (moDCs) and lymph node cDC2s (SW1 tumors; oral L-fuc, SW1 model): significant, albeit transient, increases | Protein Kinase A (PKA) and actin signaling in CD4+T cells [1]: significantly altering
